Data from patent US11723360B2 (priority 2018, dated 2023).
In brackets after ≈: the same amount, converted by molar mass. Read-outs that look alike come from different tables or passages of the source.

Tests used:
Caenorhabditis elegans = assay: Insecticidal bioassay against Caenorhabditis elegans in 96-well plate; assay type: in vivo; settings: for LC50: Caenorhabditis elegans
Protocol: 20 μL of 1 mg/mL methylmalonic acid aqueous solution was added to the 96-well plate, and at the same time, purified water was added; the final concentrations of the methylmalonic acid in the well plate was adjusted to […] in order; 40 nematodes were added to each well; and a bioassay system was 200 μL in total, with the purified water as a control. The process was repeated 3 times for each group. They were cultured in an incubator at 16° C.
20 μL of 1 mg/mL mixed aqueous solution of methylmalonic acid and betaine (mass ratio: 1:1) was added to the 96-well plate, and at the same time, purified water was added; the final concentrations of the compounded solution in the well plate was adjusted to 1000, 100, 25, 16.67, 12.5, 10, 1, 0.5, 0.25 μg/mL in order; and 40 nematodes were added to each well; a bioassay system was 200 μL in total, with the purified water as a control, and 3 times repeated for each group. They were cultured in an incubator at 16° C.

Meloidogyne incognita = assay: Insecticidal bioassay against root-knot nematodes in 96-well plate; set-up: Lethality Rate (%): dose or concentration left out as unconfirmed; settings: for LC50: Meloidogyne incognita
[1] = water, alcohol, ether; cited from earlier work
Ralstonia solanacearum = assay type: cell-based
Alternaria solani = assay: Mycelium growth rate method, fungal plant pathogens; assay type: cell-based; set-up: key: +: effective; −: ineffective; settings: 28° C.
Protocol: (§1) The mycelia of fungal pathogens were picked and inoculated to a PDA medium for activation. With a mycelium growth rate method, 200 μg/mL methylmalonic acid mother liquid was prepared using sterile water; 4.5 mL of sterile water was added to 0.5 mL of the mother liquid and evenly mixed; fungal masses were picked and placed in a PDA culture medium plate center, and then cultured at 28° C. to observe the results, with the sterile water as a negative control. After the plate was fully covered with the control mycelia, the diameters of the control and treatment colonies were counted with a crossing method.
as §1, with “μg/mL mixed aqueous solution of” for “μg/mL”, “acid and betaine (mass ratio: 1:1)” for “acid mother liquid”, “the mixed solution” for “the mother liquid”

Rhizoctonia solani = assay: as above; assay type: cell-based; set-up: key: +: effective; −: ineffective; settings: 28° C.
Protocol: as §1
as §1, with “μg/mL mixed aqueous solution of” for “μg/mL”, “acid and betaine (mass ratio: 1:1)” for “acid mother liquid”, “the mixed solution” for “the mother liquid”

Phytophthora capsici = assay: as above; assay type: cell-based; set-up: key: +: effective; −: ineffective; settings: 28° C.
Protocol: as §1
as §1, with “μg/mL mixed aqueous solution of” for “μg/mL”, “acid and betaine (mass ratio: 1:1)” for “acid mother liquid”, “the mixed solution” for “the mother liquid”

Pestalotiopsis theae = assay: as above; assay type: cell-based; set-up: key: +: effective; −: ineffective; settings: 28° C.
Protocol: as §1
as §1, with “μg/mL mixed aqueous solution of” for “μg/mL”, “acid and betaine (mass ratio: 1:1)” for “acid mother liquid”, “the mixed solution” for “the mother liquid”

Corynespora cassiicola = assay: as above; assay type: cell-based; set-up: key: +: effective; −: ineffective; settings: 28° C.
Protocol: as §1
as §1, with “μg/mL mixed aqueous solution of” for “μg/mL”, “acid and betaine (mass ratio: 1:1)” for “acid mother liquid”, “the mixed solution” for “the mother liquid”

Fusarium oxysporum = assay: as above; assay type: cell-based; set-up: key: +: effective; −: ineffective; settings: 28° C.
Protocol: as §1
as §1, with “μg/mL mixed aqueous solution of” for “μg/mL”, “acid and betaine (mass ratio: 1:1)” for “acid mother liquid”, “the mixed solution” for “the mother liquid”

Botrytis cinerea = assay: as above; assay type: cell-based; set-up: key: +: effective; −: ineffective; settings: 28° C.
Protocol: as §1
as §1, with “μg/mL mixed aqueous solution of” for “μg/mL”, “acid and betaine (mass ratio: 1:1)” for “acid mother liquid”, “the mixed solution” for “the mother liquid”

Sclerotinia sclerotiorum = assay: as above; assay type: cell-based; set-up: key: +: effective; −: ineffective; settings: 28° C.
Protocol: as §1
as §1, with “μg/mL mixed aqueous solution of” for “μg/mL”, “acid and betaine (mass ratio: 1:1)” for “acid mother liquid”, “the mixed solution” for “the mother liquid”

fungal plant pathogens = assay: Mycelium growth rate method, summary statement for all fungi tested; assay type: cell-based; settings: Example 5
Protocol: as §1
as §1, with “μg/mL mixed aqueous solution of” for “μg/mL”, “acid and betaine (mass ratio: 1:1)” for “acid mother liquid”, “the mixed solution” for “the mother liquid”

Erwinia carotovora = assay: Agar plate diffusion method, bacterial plant pathogens; assay type: cell-based
Xanthomonas campestris = assay: as above; assay type: cell-based; settings: 5 μL of 0.1 g/mL on 6 mm filter paper, 30° C.
[2] = read-out: LC50 against the Meloidogyne incognita
[3] = read-out: LC50 value against the Meloidogyne incognita
[4] = 5 μL of 0.1 g/mL on 6 mm filter paper, 30° C.
[5] = 200 μg/mL mother liquid, 0.5 mL + 4.5 mL sterile water, PDA
[6] = Example 9: 200 μg/mL mixed aqueous solution of methylmalonic acid and betaine (1:1), 0.5 mL + 4.5 mL water

Compound: C[N+](C)(C)CC(=O)O [betaine]
- LC50 (Caenorhabditis elegans; text of Examples 3 and 7, read-out: LC50 against the Caenorhabditis elegans): 14.8 µg/mL
- LC50 (Meloidogyne incognita; [2]): 75.2 µg/mL
- LC50 (Meloidogyne incognita; [3]): 75.2 µg/mL

Compound: CC(C(=O)O)C(=O)O [methylmalonic acid]
- solubility (physical properties) [1]: soluble in water, alcohol and ether
- Diameter of Inhibition Zone (Ralstonia solanacearum; [4]): 12 mm
- Microbicidal Effect (Ralstonia solanacearum; [4]): ++ (with microbicidal activity, and the diameter of an inhibition zone being more than 10 mm)
- microbicidal activity against the Pseudomonas solanacearum (Ralstonia solanacearum; 5 μL of 0.1 g/mL, Example 4): showed a microbicidal activity
- LC50 (Caenorhabditis elegans; 16° C., table value, read-out: Medial Lethal Concentration (LC50, ug/mL)): 1.2 µg/mL (≈ 10.2 µM)
- LC50 (Caenorhabditis elegans; read-out: LC50 value against the Caenorhabditis elegans, text of Example 3): 1.2 µg/mL (≈ 10.2 µM)
- Lethality Rate (%) (Caenorhabditis elegans; Dose 1 pg/mL): 18.4%
- Lethality Rate (%) (Caenorhabditis elegans; Dose 10 pg/mL): 70.0%
- Lethality Rate (%) (Caenorhabditis elegans; Dose 16.67 pg/mL): 94.9%
- Lethality Rate (%) (Caenorhabditis elegans; Dose 25 pg/mL): 90.5%
- Lethality Rate (%) (Caenorhabditis elegans; Dose 100 pg/mL): 97.4%
- Lethality Rate (%) (Caenorhabditis elegans; Dose 1000 pg/mL): 97.5%
- Lethality Rate (%) (Meloidogyne incognita; Dose 1): 8.1%
- Lethality Rate (%) (Meloidogyne incognita; Dose 10): 12.5%
- Lethality Rate (%) (Meloidogyne incognita; Dose 12.5): 29.3%
- Lethality Rate (%) (Meloidogyne incognita; Dose 16.67): 76.3%
- Lethality Rate (%) (Meloidogyne incognita; Dose 25): 81.1%
- Lethality Rate (%) (Meloidogyne incognita; Dose 50): 80%
- Lethality Rate (%) (Meloidogyne incognita; Dose 100): 97.5%
- Lethality Rate (%) (Meloidogyne incognita; Dose 1000): 97.4%
- LC50 (Meloidogyne incognita; [2]): 13.1 µg/mL (≈ 111 µM)
- LC50 (Meloidogyne incognita; [3]): 13.1 µg/mL (≈ 111 µM)
- LC50 (Meloidogyne incognita; read-out: Medial Lethal Concentration (LC50, ug/mL)): 13.1 µg/mL (≈ 111 µM)
- Microbicidal Effect (Alternaria solani; [5]): −
- Microbicidal Effect (Alternaria solani; [6]): −
- Microbicidal Effect (Rhizoctonia solani; [5]): −
- Microbicidal Effect (Rhizoctonia solani; [6]): −
- Microbicidal Effect (Phytophthora capsici; [5]): −
- Microbicidal Effect (Phytophthora capsici; [6]): −
- Microbicidal Effect (Pestalotiopsis theae; [5]): −
- Microbicidal Effect (Pestalotiopsis theae; [6]): −
- Microbicidal Effect (Corynespora cassiicola; [5]): −
- Microbicidal Effect (Corynespora cassiicola; [6]): −
- Microbicidal Effect (Fusarium oxysporum; [5]): −
- Microbicidal Effect (Fusarium oxysporum; [6]): −
- Microbicidal Effect (Botrytis cinerea; [5]): −
- Microbicidal Effect (Botrytis cinerea; [6]): −
- Microbicidal Effect (Sclerotinia sclerotiorum; [5]): −
- Microbicidal Effect (Sclerotinia sclerotiorum; [6]): −
- microbicidal activity against the fungal plant pathogens (fungal plant pathogens): showed no microbicidal activity
- Diameter of Inhibition Zone (Erwinia carotovora; [4]): 6.9 mm
- Microbicidal Effect (Erwinia carotovora; [4]): + (with microbicidal activity, the diameter of an inhibition zone being less than 10 mm)
- microbicidal activity against the Erwinia carotovora (Erwinia carotovora; 5 μL of 0.1 g/mL, Example 4): showed a microbicidal activity
- Diameter of Inhibition Zone (Xanthomonas campestris): 0 mm
- Microbicidal Effect (Xanthomonas campestris): −
